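Values below derive from 48-hour exposures of cells grown in 96-well plates, with endpoints linearly interpolated between the two concentrations bracketing the appropriate inhibition level. GI50: concentration for 50% inhibition of growth.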 Active and inactive are the calls of the source. Cut-off read from the data, not from the text of the source: active = GI50 up to about 1.1 µM and inactive = higher.
Experiments:
Assay in all cases: NCI tumour cell line growth inhibition, 48 h
COLO 205 = tested on: COLO 205
DU-145 = tested on: DU-145
HL-60 = tested on: HL-60
HT-29 = tested on: HT-29
IGROV-1 = tested on: IGROV-1
K562 = tested on: K562
LOX IMVI = tested on: LOX IMVI
M14 = tested on: M14
MOLT-4 = tested on: MOLT-4
Malme-3M = tested on: Malme-3M
OVCAR-3 = tested on: OVCAR-3
OVCAR-8 = tested on: OVCAR-8
SF-268 = tested on: SF-268
SF-539 = tested on: SF-539
SN12C = tested on: SN12C
SR = tested on: SR
SW-620 = tested on: SW-620
TK-10 = tested on: TK-10
SNB-19 = tested on: SNB-19
A498 = tested on: A498

| Compound | GI50 (COLO 205) | GI50 (DU-145) | GI50 (HL-60) | GI50 (HT-29) | GI50 (IGROV-1) | GI50 (K562) | GI50 (LOX IMVI) | GI50 (M14) | GI50 (MOLT-4) | GI50 (Malme-3M) | GI50 (OVCAR-3) | GI50 (OVCAR-8) | GI50 (SF-268) | GI50 (SF-539) | GI50 (SN12C) | GI50 (SR) | GI50 (SW-620) | GI50 (TK-10) | GI50 (SNB-19) | GI50 (A498) |
| --- | --- | --- | --- | --- | --- | --- | --- | --- | --- | --- | --- | --- | --- | --- | --- | --- | --- | --- | --- | --- |
| CC(C)COP(C)(=O)C(N)(C(F)(F)F)C(F)(F)F (configuration not stated) | > 100 µM (inactive) | > 100 µM (inactive) | > 100 µM (inactive) | > 100 µM (inactive) | > 100 µM (inactive) | > 100 µM (inactive) | > 100 µM (inactive) | > 100 µM (inactive) | > 100 µM (inactive) | > 100 µM (inactive) | > 100 µM (inactive) | > 100 µM (inactive) | > 100 µM (inactive) | > 100 µM (inactive) | > 100 µM (inactive) | > 100 µM (inactive) | > 100 µM (inactive) | > 100 µM (inactive) | – | – |
| CC1=C(N2CC2)C(=O)c2ccccc2C1=O | 0.762 µM (active) | 0.116 µM (active) | 2.52 µM (inactive) | 0.394 µM (active) | 1.47 µM (inactive) | 0.783 µM (active) | 1.22 µM (inactive) | 1.22 µM (inactive) | 1.11 µM (active) | 1.27 µM (inactive) | 1.12 µM (inactive) | 0.506 µM (active) | 0.359 µM (active) | 1.69 µM (inactive) | 0.312 µM (active) | 0.117 µM (active) | 0.185 µM (active) | 2.08 µM (inactive) | 1.21 µM (inactive) | – |
| CCOC(=O)C(NC(=O)CC)(Nc1ccc(S(=O)(=O)Nc2onc(C)c2C)cc1)C(F)(F)F (configuration not stated) | > 100 µM (inactive) | > 100 µM (inactive) | > 100 µM (inactive) | > 100 µM (inactive) | > 100 µM (inactive) | > 100 µM (inactive) | > 100 µM (inactive) | > 100 µM (inactive) | > 100 µM (inactive) | > 100 µM (inactive) | > 100 µM (inactive) | > 100 µM (inactive) | > 100 µM (inactive) | > 100 µM (inactive) | > 100 µM (inactive) | > 100 µM (inactive) | > 100 µM (inactive) | – | > 100 µM (inactive) | – |
| CC[C@@]1(O)C[C@H](OC2CC(N(C)C)C(OC3CC(O)C(OC4CCC(=O)C(C)O4)C(C)O3)C(C)O2)c2c(cc3c(c2O)C(=O)c2c(O)ccc(O)c2C3=O)[C@H]1C(=O)OC (some centres not stated) | 7.55e-05 µM (active) | 0.00173 µM (active) | 6.56e-05 µM (active) | 4.83e-05 µM (active) | 5.35e-05 µM (active) | 8.83e-05 µM (active) | 2e-05 µM (active) | 0.000438 µM (active) | 3.55e-05 µM (active) | 9.06e-05 µM (active) | 0.000233 µM (active) | 0.00233 µM (active) | 0.000132 µM (active) | 0.000114 µM (active) | 4.18e-05 µM (active) | 0.000101 µM (active) | 5.2e-05 µM (active) | 0.00152 µM (active) | 5.51e-05 µM (active) | – |
| COc1ccc(NC(=O)CC(=O)N2N=C(C)C(/N=N/c3ccc(C(=O)O)cc3)C2=O)cc1 (configuration not stated) | > 100 µM (inactive) | > 100 µM (inactive) | > 100 µM (inactive) | > 100 µM (inactive) | > 100 µM (inactive) | > 100 µM (inactive) | 94 µM (inactive) | > 100 µM (inactive) | – | > 100 µM (inactive) | > 100 µM (inactive) | > 100 µM (inactive) | > 100 µM (inactive) | > 100 µM (inactive) | > 100 µM (inactive) | – | > 100 µM (inactive) | > 100 µM (inactive) | > 100 µM (inactive) | > 100 µM (inactive) |
